Reference: article PMC13534789, “Molecular Glue Degraders Enhance CAPRIN1‐Dependent Lysosomal Degradation of APP and Reduce Amyloid β in Alzheimer's Disease” (Advanced Science, 2026)

Experiments:
APP mRNA = assay: qRT-PCR of APP mRNA; format: cell-based, human; settings: 72 h
Method: Total RNA was isolated using the RNeasy kit (Qiagen), followed by synthesis for cDNA with a reverse transcription reaction (Quantitect Reverse Transcription kit). The sequences for APP and GAPDH are in Table S1. Quantitative PCR was performed on QuantStudio 6 Flex (Applied Biosystems). The expression levels of APP were normalized to the GAPDH mRNA levels and represented relative to the expression in control cells. The results were analyzed with the delta‐delta‐Ct methods. Ct values were calculated using QuantStudio Design & Analysis Software, and relative expression levels were analyzed with GraphPad Prism.

rhCAPRIN1 and rhAPP = assay: ThermoFluor assay with recombinant proteins; format: binding, human; settings: proteins 5 µM
Method: For the Thermofluor assay, Huynh's protocol was used with minor modifications. In brief, all proteins were used at a final concentration of 5 µM for this assay, and GloMelt Thermal Shift Protein Stability Kit (Biotium) was used at a final concentration of 0.5X. All experiments were carried out with QuantStudio 6 Flex (Applied Biosystems). SYBR was used as a reporter, and ROX was used as a passive reference according to the manufacturer's directions. Melting curve data were exported, followed by analysis with Boltzmann's sigmoidal curve in GraphPad Prism.

Aβ42 = Aβ42 ELISA of conditioned media, HEK-APP695WT cells; format: cell-based, human; settings: 72 h
Method: iPSC‐Ns or HEK‐APP695WT were treated with drugs, and secreted Aβ42 peptides inculture soup were quantified using the Human Amyloid β1‐42 human ELISA kit (Thermo Fisher) according to the manufacturer's protocol. Mouse brain extraction was performed as previously described, with minor modifications. Mouse brain tissues were homogenized at a 1:10 weight‐to‐volume ratio in Tris‐buffered saline (TBS; 50 mM Tris, pH 7.4, 150 mM NaCl) supplemented with 2 mM EDTA and protease inhibitors. TBS‐homogenized brains were centrifuged for 1 h at 16 000 g. To extract total Aβ, including insoluble fractions, formic acid was added to a final concentration of 70%, and the samples were thoroughly mixed by pipetting. […] Prior to quantification, formic acid‐containing samples were neutralized with 1 M Tris base (pH 11). Aβ40 and Aβ42 levels were measured using human‐specific ELISA kits (Invitrogen) and normalized to total protein concentrations determined by the BCA assay (Thermo Scientific). For Aβ quantification in 3D organoids, 3D organoids’ processing and ELISA analysis were performed with minor modifications from previously described protocols. […] Aβ42 levels in both fractions were measured using human‐specific ELISA kits (Thermo Fisher) according to the manufacturer's instructions. […] Aβ levels were normalized to total protein concentration determined by BCA assay.

5xFAD transgenic mice = assay: Amyloid pathology in 5xFAD mice (IHC, Thioflavin S, ELISA); format: in vivo, mouse
Text: (§1) Female 5xFAD transgenic mice (9–10 weeks old) were used to evaluate the efficacy of 0152 in reducing amyloid pathology. Mice were housed under Indiana University standard laboratory conditions. For intraperitoneal (IP) administration, mice received either vehicle or 0152 (indicated concentrations) in a formulation consisting of 20% DMSO, 20% Cremophor EL, and 60% PBS. For oral (PO) administration, mice received either vehicle or 0152 (indicated concentrations) in a formulation consisting of 10% NMP (N‐methyl‐2‐pyrrolidone), 10% PG (Propylene Glycol), 5% Solutol HS‐15, and 75% Captisol (10% w/v in RO water). At the end of the treatment period, mice were sacrificed, and their brains were collected for histological analysis. Brain tissues were fixed in 10% Formalin, embedded in paraffin, and sectioned. Thioflavin S staining was performed to visualize β‐sheet‐rich amyloid plaques, and immunohistochemistry was conducted using the 6E10 monoclonal antibody to detect Aβ plagues. Body weights were recorded daily throughout the study.
iPSC‐Ns or HEK‐APP695WT were treated with drugs, and secreted Aβ42 peptides inculture soup were quantified using the Human Amyloid β1‐42 human ELISA kit (Thermo Fisher) according to the manufacturer's protocol. Mouse brain extraction was performed as previously described, with minor modifications. Mouse brain tissues were homogenized at a 1:10 weight‐to‐volume ratio in Tris‐buffered saline (TBS; 50 mM Tris, pH 7.4, 150 mM NaCl) supplemented with 2 mM EDTA and protease inhibitors. TBS‐homogenized brains were centrifuged for 1 h at 16 000 g. To extract total Aβ, including insoluble fractions, formic acid was added to a final concentration of 70%, and the samples were thoroughly mixed by pipetting. Homogenates were centrifuged at 100 000 g for 1 h at 4°C, and the resulting supernatants were collected. Prior to quantification, formic acid‐containing samples were neutralized with 1 M Tris base (pH 11). Aβ40 and Aβ42 levels were measured using human‐specific ELISA kits (Invitrogen) and normalized to total protein concentrations determined by the BCA assay (Thermo Scientific). For Aβ quantification in 3D organoids, 3D organoids’ processing and ELISA analysis were performed with minor modifications from previously described protocols. Briefly, cerebral organoids were lysed in RIPA buffer supplemented with protease and phosphatase inhibitor cocktails (Sigma), followed by sonication and incubation on ice for 60 min. Lysates were centrifuged at 13 000 rpm for 1 h at 4°C, and the supernatants were collected as the RIPA‐soluble fraction. The remaining pellets were resuspended in 70% formic acid, sonicated, and subsequently neutralized with Tris buffer to obtain the formic acid‐solubilized fraction. Aβ42 levels in both fractions were measured using human‐specific ELISA kits (Thermo Fisher) according to the manufacturer's instructions. Formic acid extracts were appropriately neutralized prior to ELISA. Aβ levels were normalized to total protein concentration determined by BCA assay.
Autopsy samples of brain tissues were provided, and immunohistochemistry was performed in the Department of Pathology and Laboratory Medicine, Indiana University School of Medicine, following the institutional protocols. Paraffin‐embedded 3D organoids and human AD patient brain samples were subjected to Hematoxylin and Eosin (H&E), synapses, GFAP, CAPRIN1 (polyclonal Rabbit anti‐CAPRIN1, 15112‐1‐AP, Proteintech), APP (monoclonal mouse anti‐APP/Aβ (6E10), 803001, Biolegend; MAB348, Millipore Sigma) in a Dako automated instrument using the Dako Flex detection system. The primary antibodies and secondary antibodies were used in colocalization experiments with human AD brain biopsy samples, then imaged using a confocal microscope system. Thioflavin‐S was stained with deparaffinization and rehydration of mouse brain sections using a series of xylene and ethanol washes. […]

[1] = Brain/plasma ratio in mice; format: in vivo, male C57BL/6 mice; settings: male, C57BL/6, brain, 10 mg/kg; mouse, PO, 10 mpk; read-out: B/P-Kp (brain-to-plasma partition coefficient)
Method: Brain/Plasma Ratio test was processed by Sai Life Sciences Pvt. Ltd. Briefly, twelve male C57BL/6 mice were administered orally with solution formulation of 0152 at 10 mg/kg dose. Blood samples (approximately 60 µL) were collected under light isoflurane anesthesia from a set of three mice at 0.25, 0.5, 1, and 2 h. The blood samples were collected at each time point in labelled micro centrifuge tube containing K2EDTA as anticoagulant. Plasma was harvested by centrifugation of blood and stored at ‐70±10°C until analysis. Immediately after collecting blood, animals were anesthetized, perfused using 10 mL phosphate buffer saline, and brain samples were collected from each mouse at respective time points. Brain samples were homogenized using ice‐cold phosphate buffer saline (pH 7.4), and homogenates were stored below ‐70±10°C until analysis. Total homogenate volume was three times the brain weight. The plasma and brain concentration‐time data of 0152 were used for calculation. Plasma and brain samples were quantified by fit‐for‐purpose LC‐MS/MS method.

[2] = Tolerability and body weight in 5xFAD mice; format: in vivo
Text: as §1

[3] = 80 mg/kg IP twice per day, 30 days
[4] = 80 mg/kg oral gavage twice daily, 30 days

| SMILES | APP mRNA expression (qRT-PCR) (APP mRNA; AD iPSC-Ns) | APP mRNA (qRT-PCR) (APP mRNA; HEK-APP695WT cells) | Thermal shift of recombinant CAPRIN1 and APP (rhCAPRIN1 and rhAPP) | Aβ42 in conditioned media (Aβ42; 10 µM) | Extracellular Aβ42 (ELISA) (Aβ42; increasing concentrations) | APP/Aβ-positive areas and plaque sizes in subiculum and hippocampus, plaque sizes in cortex (IHC) (5xFAD transgenic mice; [3]) | Fibrillar Aβ plaques in subiculum (Thioflavin S) (5xFAD transgenic mice; [3]) | APP/Aβ-positive areas and plaque sizes in subiculum (IHC, Thioflavin S) (5xFAD transgenic mice; [4]) | APP/Aβ-positive area and amyloid plaque size, hippocampus and subiculum (IHC) (5xFAD transgenic mice; 100 mg/kg IP daily, 24 days) | Aβ40 and Aβ42 levels in hemispheric brain lysates (ELISA) (5xFAD transgenic mice; 100 mg/kg IP daily, 24 days) | Fibrillar Aβ plaques in subiculum (Thioflavin S) (5xFAD transgenic mice; 100 mg/kg IP daily, 24 days) | Plaque burden in cortex (IHC) (5xFAD transgenic mice; 100 mg/kg IP daily, 24 days) | Kp [1] | Tolerability, body weight [2, 3] | Body weight [2, 4] | Tolerability (lethargy, ataxia, paralysis, seizures, weight loss) ([2]; 100 mg/kg IP daily, 24 days) |
| --- | --- | --- | --- | --- | --- | --- | --- | --- | --- | --- | --- | --- | --- | --- | --- | --- |
| N#Cc1cccc(NC(=O)Nc2nc3ccc(C(=O)N4CCOCC4)cc3s2)c1 [compound 0043] | nor did it alter APP mRNA expression | no significant changes | thermal shifts for both proteins | most potent in reducing Aβ42 | reduced intracellular APP and extracellular Aβ42 levels in a dose‐dependent manner |  |  |  |  |  |  |  |  |  |  |  |
| COc1cccc(NC(=O)Nc2nc3ccc(C(=O)N4CCOCC4)cc3s2)c1 [compound 0152] |  |  |  |  |  | significantly reduced | drastically reduced fibrillar Aβ plaques | significant reduction | significant reductions | marked decreases | reduced fibrillar Aβ plaques | minimal changes | 0.03 | well tolerated with no weight loss | no observed weight loss | tolerated treatment well |
